Reference: ChEMBL document CHEMBL1811878, “Heteroatom-substituted analogues of orphan nuclear receptor small heterodimer partner ligand and apoptosis inducer (E)-4-[3-(1-Adamantyl)-4-hydroxyphenyl]-3-chlorocinnamic acid” (J Med Chem, 2011)
Activity calls are given as the source filed them. No cut-off for these calls is given here.

What was measured:
[1] = system: A549; assay: Induction of apoptosis in human A549 cells assessed as decrease in ATP level at 10 uM after 72 hrs by luminescence assay; assay type: functional, cell-based
[2] = system: PC-3; assay: Induction of apoptosis in human PC3 cells assessed as decrease in ATP level at 10 uM after 72 hrs by luminescence assay; assay type: functional, cell-based
[3] = system: A549; assay: Induction of apoptosis in human A549 cells assessed as decrease in ATP level after 72 hrs by luminescence assay; assay type: functional, cell-based
[4] = system: PC-3; assay: Induction of apoptosis in human PC3 cells assessed as decrease in ATP level after 72 hrs by luminescence assay; assay type: functional, cell-based
[5] = system: HT-29; assay: Induction of apoptosis in human HT-29 cells assessed as decrease in ATP level after 72 hrs by luminescence assay; assay type: functional, cell-based
[6] = system: KG-1; assay: Growth inhibition in human KG1 cells expressing p53 gene at 1 uM after 48 hrs by MTT assay; assay type: functional; settings: KG-1, 48 h, read-out: GI
[7] = system: KG-1; assay: Growth inhibition in human KG1 cells expressing p53 gene at 5 uM after 48 hrs by MTT assay; assay type: functional; settings: KG-1, 48 h, read-out: GI
[8] = system: KG-1; assay: Induction of apoptosis in human KG1 cells expressing p53 gene assessed as DNA fragmentation at 1 uM after 48 hrs by acridine orange staining method; assay type: functional
[9] = system: KG-1; assay: Induction of apoptosis in human KG1 cells assessed as DNA fragmentation at 5 uM after 48 hrs by acridine orange staining method; assay type: functional
[10] = Induction of apoptosis in mouse MMTV-Wnt-1 cells assessed as cell viability after 72 hrs by DAPI staining based cell counting; assay type: functional
[11] = system: HT-29; assay: Induction of apoptosis in human HT-29 cells assessed as decrease in ATP level at 10 uM after 72 hrs by luminescence assay; assay type: functional
[12] = Induction of apoptosis in retinoid-resistant p53 null human HL60R cells assessed as DNA fragmentation at 0.1 uM after 24 hrs by acridine orange staining method; assay type: functional
[13] = Induction of apoptosis in retinoid-resistant p53 null human HL60R cells assessed as DNA fragmentation at 1 uM after 24 hrs by acridine orange staining method; assay type: functional
[14] = system: A549; assay: Induction of apoptosis in human A549 cells assessed as decrease in ATP level at 5 uM after 72 hrs by luminescence assay; assay type: functional; set-up: scale not given: the % may be the effect or the level left
[15] = system: PC-3; assay: Induction of apoptosis in human PC3 cells assessed as decrease in ATP level at 5 uM after 72 hrs by luminescence assay; assay type: functional; set-up: scale not given: the % may be the effect or the level left
[16] = system: HT-29; assay: Induction of apoptosis in human HT-29 cells assessed as decrease in ATP level at 5 uM after 72 hrs by luminescence assay; assay type: functional; set-up: scale not given: the % may be the effect or the level left

| SMILES | Activity [1] | Activity [2] | Activity [3] | Activity [4] | Activity [5] | inhibition of growth at 1 µM [6] | inhibition of growth at 5 µM [7] | Activity [8] | Activity [9] | IC50 [10] | Activity [11] | Activity [12] | Activity [13] | Activity [14] | Activity [15] | Activity [16] |
| --- | --- | --- | --- | --- | --- | --- | --- | --- | --- | --- | --- | --- | --- | --- | --- | --- |
| CCOC(=O)/C=C/c1ccc(-c2ccc(O)c(C34CC5CC(CC(C5)C3)C4)c2)nc1 | Active | Active | Dose-dependent effect | Dose-dependent effect | Dose-dependent effect | 0% | 45% | 0% | 0% | – | – | – | – | – | – | – |
| O=C(O)c1cc2ccc(-c3ccc(O)c(C45CC6CC(CC(C6)C4)C5)c3)cc2[nH]1 | – | – | Dose-dependent effect | Dose-dependent effect | Dose-dependent effect | 1% | 8% | 1% | 3% | – | – | – | – | – | – | – |
| O=C(O)CCN1CCN(c2ccc(O)c(C34CC5CC(CC(C5)C3)C4)c2)CC1 | inactive | Active | Dose-dependent effect | Dose-dependent effect | Dose-dependent effect | -3% | 5% | 1% | 1% | – | – | – | – | – | – | – |
| O=C(O)/C=C/c1cnc(-c2ccc(O)c(C34CC5CC(CC(C5)C3)C4)c2)cn1 | – | Active | Dose-dependent effect | Dose-dependent effect | Dose-dependent effect | 44% | 61% | 39% | 50% | 316 nM | inactive | – | – | – | – | – |
| CC(=O)Oc1ccc(-c2ccc(/C=C/C(=O)O)cn2)cc1C12CC3CC(CC(C3)C1)C2 | – | – | Dose-dependent effect | Dose-dependent effect | Dose-dependent effect | 46% | 54% | 52% | 67% | – | – | – | – | – | – | – |
| O=C(O)/C=C/C1CCN(c2ccc(O)c(C34CC5CC(CC(C5)C3)C4)c2)CC1 | – | – | Dose-dependent effect | Dose-dependent effect | Dose-dependent effect | 1% | 2% | 1% | 1% | – | – | – | – | – | – | – |
| O=C(O)CC(=O)N1CCN(c2ccc(O)c(C34CC5CC(CC(C5)C3)C4)c2)C(=O)C1 | – | – | Dose-dependent effect | Dose-dependent effect | Dose-dependent effect | -2% | -5% | 1% | 2% | – | – | – | – | – | – | – |
| O=C(O)/C=C/c1cnc(-c2ccc(O)c(C34CC5CC(CC(C5)C3)C4)c2)c(Cl)c1 | Active | Active | Dose-dependent effect | Dose-dependent effect | Dose-dependent effect | 41% | 47% | 56% | 65% | – | inactive | – | – | – | – | – |
| O=C(O)c1ccc2c(Cl)c(-c3ccc(O)c(C45CC6CC(CC(C6)C4)C5)c3)ccc2c1 | – | – | – | – | – | – | – | – | – | – | – | 62% | 94% | – | – | – |
| O=C(O)CS(=O)(=O)c1ccc(-c2ccc(O)c(C34CC5CC(CC(C5)C3)C4)c2)c(Cl)c1 | – | – | Dose-dependent effect | Dose-dependent effect | Dose-dependent effect | 7% | 13% | 2% | 6% | – | – | – | – | – | – | – |
| O=C(O)COc1ccc(-c2ccc(O)c(C34CC5CC(CC(C5)C3)C4)c2)c(Cl)c1 | inactive | – | Dose-dependent effect | Dose-dependent effect | Dose-dependent effect | 34% | 75% | 5% | 25% | – | – | – | – | – | – | – |
| O=C(O)/C=C/c1ccc(-c2ccc(O)c(C34CC5CC(CC(C5)C3)C4)c2)nn1 | inactive | Active | Dose-dependent effect | Dose-dependent effect | Dose-dependent effect | 70% | 80% | 48% | 59% | – | – | – | – | <=5% | >60% | <=5% |
| O=C(O)/C=C/c1ccc(-c2ccc(O)c(C34CC5CC(CC(C5)C3)C4)c2)cn1 | Active | Active | Dose-dependent effect | Dose-dependent effect | Dose-dependent effect | 48% | 58% | 36% | 52% | – | – | – | – | 10% | >60% | 10% |
| O=C(O)CCc1ccc(-c2ccc(O)c(C34CC5CC(CC(C5)C3)C4)c2)c(Cl)c1 | – | – | Dose-dependent effect | Dose-dependent effect | Dose-dependent effect | 0% | 0% | 0% | 1% | – | – | – | – | – | – | – |
| O=C(O)CNc1cnc(-c2ccc(O)c(C34CC5CC(CC(C5)C3)C4)c2)nc1 | – | – | Dose-dependent effect | Dose-dependent effect | Dose-dependent effect | 0% | 0% | 0% | 0% | – | – | – | – | – | – | – |
| O=C(O)CSc1ccc(-c2ccc(O)c(C34CC5CC(CC(C5)C3)C4)c2)c(Cl)c1 | – | – | Dose-dependent effect | Dose-dependent effect | Dose-dependent effect | 7% | 11% | 2% | 5% | – | – | – | – | – | – | – |
| O=C(O)CNc1ccc(-c2ccc(O)c(C34CC5CC(CC(C5)C3)C4)c2)c(Cl)c1 | inactive | – | Dose-dependent effect | Dose-dependent effect | Dose-dependent effect | 30% | 45% | 18% | 35% | – | >=40% | – | – | – | – | – |
